Assay results published in the CheMixHub viscosity set.

Assay: xn = mol fraction of the nth substance listed

CCCC(=O)O + O
Settings | viscosity [mPa·s]
293.15 K, 101 kPa, x1 = 0.015 | 1.31
293.15 K, 101 kPa, x1 = 0.034 | 1.64
293.15 K, 101 kPa, x1 = 0.078 | 2.41
293.15 K, 101 kPa, x1 = 0.165 | 3.24
293.15 K, 101 kPa, x1 = 0.316 | 3.71
293.15 K, 101 kPa, x1 = 0.497 | 3.6
293.15 K, 101 kPa, x1 = 0.664 | 3.25
293.15 K, 101.33 kPa, x1 = 0.0222 | 1.332
293.15 K, 101.33 kPa, x1 = 0.0806 | 2.265
293.15 K, 101.33 kPa, x1 = 0.17 | 3.095
298.15 K, 101 kPa, x1 = 0.006288 | 0.973
298.15 K, 101 kPa, x1 = 0.01294 | 1.065
298.15 K, 101 kPa, x1 = 0.02 | 1.152
298.15 K, 101 kPa, x1 = 0.02743 | 1.248
298.15 K, 101 kPa, x1 = 0.03475 | 1.344
298.15 K, 101 kPa, x1 = 0.04154 | 1.44
298.15 K, 101 kPa, x1 = 0.04898 | 1.55
298.15 K, 101 kPa, x1 = 0.05981 | 1.695
298.15 K, 101 kPa, x1 = 0.07342 | 1.881
298.15 K, 101 kPa, x1 = 0.08697 | 2.038
298.15 K, 101 kPa, x1 = 0.1045 | 2.222
298.15 K, 101 kPa, x1 = 0.1191 | 2.365
298.15 K, 101 kPa, x1 = 0.133 | 2.463
298.15 K, 101 kPa, x1 = 0.144 | 2.538
298.15 K, 101 kPa, x1 = 0.17 | 2.699
298.15 K, 101 kPa, x1 = 0.2 | 2.823
298.15 K, 101 kPa, x1 = 0.237 | 2.941
298.15 K, 101 kPa, x1 = 0.277 | 3.039
298.15 K, 101 kPa, x1 = 0.321 | 3.121
298.15 K, 101 kPa, x1 = 0.36 | 3.129
298.15 K, 101 kPa, x1 = 0.408 | 3.136
298.15 K, 101 kPa, x1 = 0.472 | 3.095
298.15 K, 101 kPa, x1 = 0.529 | 3.032
298.15 K, 101 kPa, x1 = 0.618 | 2.861
298.15 K, 101 kPa, x1 = 0.669 | 2.702
298.15 K, 101 kPa, x1 = 0.816 | 2.249
308.15 K, 101 kPa, x1 = 0.006288 | 0.777
308.15 K, 101 kPa, x1 = 0.01294 | 0.844
308.15 K, 101 kPa, x1 = 0.02 | 0.911
308.15 K, 101 kPa, x1 = 0.02743 | 0.979
308.15 K, 101 kPa, x1 = 0.03475 | 1.048
308.15 K, 101 kPa, x1 = 0.04154 | 1.12
308.15 K, 101 kPa, x1 = 0.04898 | 1.201
308.15 K, 101 kPa, x1 = 0.05981 | 1.308
308.15 K, 101 kPa, x1 = 0.07342 | 1.445
308.15 K, 101 kPa, x1 = 0.08697 | 1.563
308.15 K, 101 kPa, x1 = 0.1045 | 1.695
308.15 K, 101 kPa, x1 = 0.1191 | 1.769
308.15 K, 101 kPa, x1 = 0.133 | 1.873
308.15 K, 101 kPa, x1 = 0.144 | 1.932
308.15 K, 101 kPa, x1 = 0.17 | 2.049
308.15 K, 101 kPa, x1 = 0.2 | 2.15
308.15 K, 101 kPa, x1 = 0.237 | 2.243
308.15 K, 101 kPa, x1 = 0.277 | 2.322
308.15 K, 101 kPa, x1 = 0.321 | 2.392
308.15 K, 101 kPa, x1 = 0.36 | 2.415
308.15 K, 101 kPa, x1 = 0.408 | 2.415
308.15 K, 101 kPa, x1 = 0.472 | 2.398
308.15 K, 101 kPa, x1 = 0.529 | 2.358
308.15 K, 101 kPa, x1 = 0.618 | 2.248
308.15 K, 101 kPa, x1 = 0.669 | 2.142
308.15 K, 101 kPa, x1 = 0.816 | 1.819
313.15 K, 101.33 kPa, x1 = 0.0222 | 0.848
313.15 K, 101.33 kPa, x1 = 0.0806 | 1.327
313.15 K, 101.33 kPa, x1 = 0.17 | 1.786

COCCO + CC1COC(=O)O1
viscosity [mPa·s], 101.33 kPa
Settings | 298.15 K | 308.15 K | 318.15 K
x1 = 0.0271 | 2.41 | – | –
x1 = 0.0632 | 2.298 | 1.913 | 1.612
x1 = 0.0927 | 2.24 | – | –
x1 = 0.1045 | 2.193 | 1.824 | 1.541
x1 = 0.1523 | 2.104 | 1.756 | 1.484
x1 = 0.1824 | 2.057 | – | –
x1 = 0.2117 | 2.004 | 1.679 | 1.423
x1 = 0.2527 | 1.95 | 1.634 | 1.381
x1 = 0.2995 | 1.917 | – | –
x1 = 0.305 | 1.89 | 1.581 | 1.339
x1 = 0.3489 | 1.843 | 1.537 | 1.306
x1 = 0.397 | 1.794 | 1.492 | 1.273
x1 = 0.4053 | 1.813 | – | –
x1 = 0.4225 | 1.787 | – | –
x1 = 0.4547 | 1.745 | 1.456 | 1.224
x1 = 0.4942 | 1.738 | – | –
x1 = 0.4979 | 1.717 | 1.43 | 1.214
x1 = 0.5467 | 1.7 | – | –
x1 = 0.5531 | 1.68 | – | 1.183
x1 = 0.5954 | 1.664 | 1.385 | 1.172
x1 = 0.5956 | 1.674 | – | –
x1 = 0.6388 | – | 1.361 | 1.147
x1 = 0.6429 | 1.652 | – | –
x1 = 0.6954 | 1.619 | 1.341 | 1.127
x1 = 0.7027 | 1.626 | – | –
x1 = 0.7088 | 1.626 | – | –
x1 = 0.7346 | 1.593 | 1.325 | 1.111
x1 = 0.7911 | 1.602 | – | –
x1 = 0.7959 | 1.574 | 1.31 | 1.098
x1 = 0.8414 | 1.569 | 1.297 | 1.083
x1 = 0.864 | 1.575 | – | –
x1 = 0.9025 | 1.545 | 1.276 | 1.076
x1 = 0.9325 | 1.552 | – | –
x1 = 0.9593 | 1.546 | 1.266 | 1.055
x2 = 0.0163 | 1.534 | – | –

CCCC(C)O (stereo not drawn) + COc1ccccc1
viscosity [mPa·s], 101.33 kPa
Settings | x2 = 0.1007 | x2 = 0.2007 | x2 = 0.3001 | x2 = 0.4004 | x2 = 0.5005 | x2 = 0.5991 | x2 = 0.6973 | x2 = 0.798 | x2 = 0.897
303.15 K | 2.097 | 1.59 | 1.279 | 1.095 | 0.998 | 0.951 | 0.931 | 0.924 | 0.919
313.15 K | 1.557 | 1.234 | 1.025 | 0.903 | 0.845 | 0.823 | 0.816 | 0.811 | 0.801
323.15 K | 1.202 | 1.014 | 0.887 | 0.803 | 0.753 | 0.725 | 0.711 | 0.704 | 0.697
